Source: patent publication US20070059687A1, “Process for evaluating phagocytotic function and use thereof” (priority 2001, published 2007)

How the values were obtained:
[1] = tested on: digested samples; experiment: Influence of surfactant added to hybridization solution on signal detection; format: cell-based; details: for detection sensitivity: surfactant added to the probe dilution solution, SDS 0.25%
Procedure: A solution containing 15 ng of a digoxigenin labelled DNA probe prepared with a probe dilution solution (including 0.25% SDS, 600 μl of salmon sperm DNA, 50 μl of 100× Denhardt's solution, 500 μl of a hybridization stock solution, 2250 μl of formamide, 1000 μl 50% dextran sulfate) is coated on the smeared site, and the slide was left to stand still in a humid box at 37° C. to 42° C. for 2 hours. A probe solution without including SDS was determined as a control. The digoxigenin labelled DNA probe was produced by a nick translation method. Thereafter, a hybridization washing solution (prepared by mixing a hybridization stock solution (13.15 g of sodium chloride, 6.615 g of trisodium citrate dihydrate, adjusted to give the total volume of 75 ml with sterile purified water) in a ratio of the hybridization stock solution:sterile purified water:formamide=5:4:50) was provided in three staining bottles, and sequentially the sample was immersed at 42° C. for 10 minutes, respectively.
The digested samples produced according to the process described in Example 17(1) and [2] were used as specimens. […] In addition, the detection sensitivity could be improved by lauryl sarcosine, BRIJ 35 or Tween 20.

[2] = tested on: specimen A-SA (Staphylococcus aureus); experiment: In situ hybridization of clinical blood specimens of patients suspected of sepsis; format: cell-based; details: 0.25% SDS added to probe dilution solution, FIG. 1
Procedure: As clinical specimens, 12 specimens of blood collected from patients suspected as suffering from sepsis (specimens A to L) were used. Ten ml of heparinized venous blood was collected from each patient, and after admixing the blood with a reagent for separating blood (225 mg of sodium chloride, 1.5 g of dextran (MW: 200,000-300,000)), adjusted to give the total volume of 25 ml with sterile purified water) at a ratio of 4:1, a leukocyte fraction (upper layer) was obtained by leaving to stand still at 37° C. for 30 minutes. […] The slide glass was immersed in PBS for 10 minutes, and thereafter, in a solution of an enzyme pretreatment reagent (prepared by mixing 1.25 g of saponin, 1.25 ml of t-octylphenoxypolyethoxyethanol (specific gravity: 1.068 to 1.075 (20/4° C.), pH (5 w/v %) 5.5-7.5) and 25 ml of the PBS stock solution, and adjusting to give the total volume of 50 ml with sterile purified water) diluted to 10 fold in sterile purified water, and allowing infiltration on a shaker for 10 minutes. […] Then, it was immersed in PBS containing 0.2 mol/l hydrochloric acid (prepared by adding hydrochloric acid to the PBS stock solution, 20 fold dilution in sterile purified water, and adjusting to give the final concentration of hydrochloric acid of 0.2 mol/l) and allowed infiltration on a shaker for 10 minutes as it was. […] A probe solution without including SDS was determined as a control. […]

[3] = tested on: Micrococcus luteus; experiment: Lysis evaluated by decrease in turbidity at 600 nm; format: cell-based; details: lysozyme 10,000 unit/ml
Procedure: (§1) Enterococcus faecalis was inoculated in 50 ml of the aforementioned BHI liquid medium, and cultured at 37° C. for 8 hours or longer. This culture liquid was centrifuged at 4° C. for 10 minutes at 2,000×g to collect the bacteria, followed by subjecting to a heat treatment in an autoclave (120° C., for 10 minutes) after suspending in PBS. Next, the suspension was centrifuged at 4° C. for 10 minutes at 2,000×g, and the supernatant was discarded. Precipitates were suspended in 1 ml of PBS, and thereafter, subjected to freeze-drying. This freeze-dried sample was suspended in 5 mmol/l Tris-hydrochloric acid (pH 6.0), 2 mmol/l magnesium chloride containing 0 to 10% DMSO to give the samples for N-acetylmuramidase. Further, Micrococcus luteus (JCM1464) was inoculated in 5 ml of BHI liquid medium (supra), and cultured at 37° C. for 8 hours or longer. The cultured bacterial liquid was centrifuged at 4° C. for 10 minutes at 2,000×g to collect the bacteria. After discarding the supernatant, and suspending and washing the bacterial pellet with 5 ml of PBS, centrifugation was conducted once again at 4° C. for 10 minutes at 2,000×g to collect the bacteria. […] Enzymatic activity was evaluated on the basis of the decrease in turbidity of the sample at the absorbance of 600 nm using a microplate reader. […] Additionally, no decrease in enzymatic activity was found with DMSO at the concentration of 2% or less. […] The results are show in FIG. 4(a) to (c) and Table 3 below.

[4] = tested on: Enterococcus faecalis; experiment: Lysis evaluated by decrease in turbidity at 600 nm; format: cell-based
Source text: (§2) Conditions for the enzyme to lyse Staphylococcus aureus (ATCC 12600), Staphylococcus epidermidis (ATCC 14990), Pseudomonas aeruginosa (ATCC 10145), Enterococcus faecalis (ATCC 19433) and Escherichia coli (ATCC 11775) were studied. For Staphylococcus aureus and Staphylococcus epidermidis, lysostafin was used as the lytic enzyme (Bur. J. Biochem., 38, 293-300, 1973). […] Further, for Pseudomonas aeruginosa and Escherichia coli, PBS containing 70 mmol/l sodium hydroxide was used. Each type of these bacteria was inoculated in 5 ml of BHI (Brain Heart Infusion) liquid medium (manufactured by DIFCO), and cultured at 37° C. for 8 hours or longer. Thus cultured bacterial liquid was collected by centrifugation at 4° C. for 10 minutes at 2,000×g. The collected bacteria were suspended in PBS to give a sample.
(§3) Lysis was evaluated by decrease in turbidity of the bacterial liquid at the absorbance of 600 nm using a microplate reader. Consequently, Staphylococcus aureus and Staphylococcus epidermidis were lysed by lysostafin. In respect of Pseudomonas aeruginosa and Escherichia coli, no enzymatic treatment was required because lysis was conducted with PBS containing 70 mmol/l sodium hydroxide. […] Moreover, when the bacterium incorporated upon phagocytotic action is for example, Pseudomonas aeruginosa, Escherichia coli or the like, bacterial cell wall is lysed during the alkaline treatment to result in the state in which the gene is exposed. Therefore, it is not necessary to conduct this enzymatic treatment. Each enzyme for the pretreatment which is used in lysis of the foreign microorganism according to the present invention is effective not only for the aforementioned bacterial strain, but also for other bacterial strain that includes other genus staphylococcus, genus streptococcus, genus bacillus, genus micrococcus and the like. […] The results are illustrated in FIG. 3, specifically, in regard to: (a) Staphylococcus aureus and Staphylococcus epidermidis, (b) Pseudomonas aeruginosa and Escherichia coli, and (c) Enterococcus faecalis.
as §1

[5] = tested on: EF digested sample; experiment: Enzymatic treatment of digested sample, bacterial bodies in leukocytes by acridine orange staining; format: cell-based, Enterococcus faecalis; details: N-acetylmuramidase fixed at 100 unit/ml
Procedure: Using the slide glass having each digested sample smeared thereon, the enzymatic pretreatment was performed according to the process described in Example 3. Next, the slide glass after completing the enzymatic pretreatment was placed in a humid box, and the reaction was allowed by dropping 1 ml of each enzyme solution prepared to give each titer on the smeared site of the specimen. Thereafter, the slide glass was immersed in PBS containing 0.2 mol/l hydrochloric acid, and in 70% ethanol respectively, for 10 minutes, and air dried. After immersing this slide glass in PBS containing 70 mmol/l sodium hydroxide for 3 minutes, and in 70% ethanol for 10 minutes, it was air dried and stained with 1% acridine orange staining solution. Then, evaluation was made with a fluorescence microscope (×1,000). For Staphylococcus aureus and Staphylococcus epidermidis, examination of the optimal titer was conducted with lysostafin. […] The determination was made as adequate when no bacterial body was identified in the leukocytes by the enzymatic treatment.
Using a slide glass including each digested sample smeared thereon, examination was conducted according to the process described in example 17 (2). Time period of the enzymatic treatment in this test was 30 minutes, and the temperature for examination was 4° C., 25° C., 37° C., 42° C., and 60° C.
Using the slide glass including each digested sample smeared thereon, examination was conducted according to the process described in example 17 (2). […] Determination was conducted according to the process described in example 17 (2).

[6] = tested on: Staphylococcus epidermidis; experiment: Lysis evaluated by decrease in turbidity at 600 nm; format: cell-based; details: lysostafin 50 unit/ml
Source text: as §2, §3, §1

Compound: CCCCCCCCCCCCOS(=O)(=O)[O-].[Na+] [SDS, sodium dodecyl sulfate]
- preferable concentration ([1]; SDS at various concentrations): ≤ 1%
- detection sensitivity [1]: dramatically enhanced
- detection sensitivity of the signal [2]: markedly elevated

Compound: CCCCCCCCCCCCN(C)CC(=O)O [Lauryl sarcosine]
- detection sensitivity [1]: improved

Compound: lysozyme: lytic enzyme (Seikagaku Corporation)
- Decrease in turbidity of bacteria ([3]; added DMSO 0 % (control)): 0.689 ± 0.028 O.D./3 minutes
- Decrease in turbidity of bacteria ([3]; added DMSO 0.1 %): 0.678 ± 0.026 O.D./3 minutes
- Decrease in turbidity of bacteria ([3]; added DMSO 1 %): 0.660 ± 0.026 O.D./3 minutes
- Decrease in turbidity of bacteria ([3]; added DMSO 2 %): 0.653 ± 0.024 O.D./3 minutes
- Decrease in turbidity of bacteria ([3]; added DMSO 5 %): 0.566 ± 0.017 O.D./3 minutes
- Decrease in turbidity of bacteria ([3]; added DMSO 10 %): 0.464 ± 0.016 O.D./3 minutes
- lytic activity ([4]; lysozyme in combination with N-acetylmuramidase versus N-acetylmuramidase alone, FIG. 3(c)): more excellent lytic activity
- enzymatic treatment determination ([5]; lysozyme titer 10 U/mL): inadequate
- enzymatic treatment determination ([5]; lysozyme titer 100 U/mL): inadequate
- enzymatic treatment determination ([5]; lysozyme titer 1,000 U/mL): inadequate
- enzymatic treatment determination ([5]; lysozyme titer 10,000 U/mL): adequate
- enzymatic treatment determination ([5]; lysozyme titer 100,000 U/mL): adequate

Compound: C[S+](C)[O-] [DMSO, dimethylsulfoxide]
- DMSO concentration at which decrease in activity was found [3]: ≥ 5%
- DMSO concentration at which no decrease in enzymatic activity was found [3]: ≤ 2%
- DMSO concentration at which decrease in activity was found [6]: ≥ 5%
- DMSO concentration at which no decrease in enzymatic activity was found [6]: ≤ 2%
- influence on N-acetylmuramidase activity ([4]; DMSO 0 to 10%, N-acetylmuramidase 300 unit/ml): hardly influenced
